Earlier results in patent US20090220426A1, “Biodegradable Inverted-Opal Structure, Method for Manufacturing and Using the Same, and Medical Implant Comprising the Biodegradable Inverted-Opal Structure” (KINKI UNIVERSITY, priority 2006, published 2009).

Test system: mouse

| L.D.50 (oral mouse) | Compound |
| --- | --- |
| 25,500 mg/kg | OCCCCCO [1,5-pentanediol] |
| 25,500 mg/kg | OCC(CO)(CO)CO [pentaerythritol] |
